Reference: patent US5532167A, “Substrate specificity of protein kinases” (Beth Israel Hospital, priority 1994, dated 1996)
Blank lines part the entries; values can stand above or below the compound they belong to. Where no end group is shown, it is not given here.

Tests used:
PKA = PKA (Bos taurus, UniProt P00517); conditions: relative to Kemptide; cited from earlier work
EGF receptor = target: T1, EGF receptor (Homo sapiens, UniProt P00533); assay: Kinetics of EGF receptor phosphorylating synthetic peptide; format: biochemical; conditions: peptide as substrate; 10 μM ATP, 10 mM MnCl2, pH 7.0
T1 construct: made in house
Excerpt: (§1) The degenerate peptide library constructed as described in Example 1, with either serine or tyrosine at the 7th position, was used as a substrate for several different protein kinases. Protein kinase A (bovine) was obtained commercially (Sigma). GST-cyclin B/p33^cdc2 (Atherton-Fessler et al. (1993) Mol. Cell. Biol. 13:1675-1685), GST-cyclinA/p33^CDK2 (Atherton-Fessler et al. (1993) Mol. Cell. Biol. 13:1675-1685), human EGF receptor, chicken pp60^v-src, polyoma virus middle T antigen/pp60^c-src (Piwnica-Worms et al. (1990) J. Virol. 64:61-68) and pp92^c-pfs/fes were expressed by baculoviruses. The baculovirus-expressed protein kinases were immobilized on protein A beads using precipitating antibodies or on glutathione-agarose bead for kinases obtained as GST fusion proteins to minimize the problem of separating the peptides from the enzyme or impurities in the enzyme. […]
(§2) The peptide sequences predicted to be optimal substrates for the cyclindependent serine/threonine kinases and for pp60^v-src tyrosine kinase were synthesized to determine whether they are indeed good substrates for these kinases. […] After 2 and a half minutes incubation, the supernatants were spotted on phosphocellulose paper (p81), washed four times with 75 mM phosphoric acid, and radioactivity counted on a scintillation counter. […] The Km and Vmax were calculated using the Kaleidagraph computer software.

cyclin A/p33^CDK2 = target: T2, cyclin A/p33^CDK2 (Homo sapiens, UniProt P24941); assay: Kinetics of cyclin A/p33CDK2 phosphorylating synthetic peptide; format: biochemical; conditions: peptide as substrate; 10 μM ATP, 10 mM MgCl2, pH 7.0
T2 construct: made in house
Excerpt: as §1, §2

Compound: Optimal peptide substrate based on fragment of Walsh inhibitor: known PKA peptide substrate, sequence G R T G R R N S I, from the literature (GRTGRRNSI)
fold lower KM than Kemptide (PKA): 40 fold

Km (EGF receptor): 34 µM
Compound: CC[C@H](C)[C@H](NC(=O)[C@H](CCC(=O)O)NC(=O)[C@H](CCC(=O)O)NC(=O)[C@H](CCC(=O)O)NC(=O)[C@H](C)N)C(=O)N[C@@H](Cc1ccc(O)cc1)C(=O)NCC(=O)N[C@@H](CCC(=O)O)C(=O)N[C@@H](Cc1ccccc1)C(=O)N[C@@H](CCC(=O)O)C(=O)N[C@@H](C)C(=O)N[C@@H](CCCCN)C(=O)N[C@@H](CCCCN)C(=O)N[C@@H](CCCCN)C(=O)N[C@@H](CCCCN)C(=O)O [AEEEIYGEFEAKKKK, Ala-Glu-Glu-Glu-Ile-Tyr-Gly-Glu-Phe-Glu-Ala-Lys-Lys-Lys-Lys]

Km (cyclin A/p33^CDK2): 15 µM
Compound: ARRPMSPKKKA [ARRPMSPKKKA, Ala-Arg-Arg-Pro-Met-Ser-Pro-Lys-Lys-Lys-Ala]
